Assay results taken from ChEMBL document CHEMBL5584330, “Small Molecular Inhibitors That Target ATM for Drug Discovery: Current Research and Potential Prospective” (J Med Chem, 2024).

Legend:
[1] = target: T1, Serine-protein kinase ATM (Homo sapiens, UniProt Q13315); experiment: Binding affinity to ATM (unknown origin) assessed as inhibition constant
[2] = target: Phosphatidylinositol 3-kinase catalytic subunit type 3 (Homo sapiens, UniProt Q8NEB9); experiment: Binding affinity to Vps34 (unknown origin) assessed as inhibition constant
U2OS [3] = experiment: cells; details: Homo sapiens
MCF7 = experiment: cells; details: Homo sapiens
Description: Antiproliferative activity against human MCF7 cells assessed as reduction in cell growth

[4] = target: T1, Serine-protein kinase ATM; experiment: Inhibition of ATM (unknown origin)
[5] = target: Serine/threonine-protein kinase mTOR (Homo sapiens, UniProt P42345); experiment: Inhibition of mTOR (unknown origin)
SW480 = experiment: Antiproliferative activity against human SW480 cells assessed as reduction in cell viability incubated for 72 hrs by MTT assay; assay type: functional, cell-based; details: SW480, 72 h
[6] = Half life in human liver microsomes; assay type: ADME, Microsome
[7] = Inhibition of PI3K (unknown origin); design: species or system Homo sapiens
[8] = target: Phosphatidylinositol 4,5-bisphosphate 3-kinase catalytic subunit alpha isoform (Homo sapiens, UniProt P42336); experiment: Inhibition of PI3K alpha (unknown origin)
U2OS [9] = experiment: Cytotoxicity against human U2OS cells assessed as reduction in cell viability incubated for 48 hrs by MTT assay; assay type: functional, cell-based

T1 sequence (Q13315 whole entry): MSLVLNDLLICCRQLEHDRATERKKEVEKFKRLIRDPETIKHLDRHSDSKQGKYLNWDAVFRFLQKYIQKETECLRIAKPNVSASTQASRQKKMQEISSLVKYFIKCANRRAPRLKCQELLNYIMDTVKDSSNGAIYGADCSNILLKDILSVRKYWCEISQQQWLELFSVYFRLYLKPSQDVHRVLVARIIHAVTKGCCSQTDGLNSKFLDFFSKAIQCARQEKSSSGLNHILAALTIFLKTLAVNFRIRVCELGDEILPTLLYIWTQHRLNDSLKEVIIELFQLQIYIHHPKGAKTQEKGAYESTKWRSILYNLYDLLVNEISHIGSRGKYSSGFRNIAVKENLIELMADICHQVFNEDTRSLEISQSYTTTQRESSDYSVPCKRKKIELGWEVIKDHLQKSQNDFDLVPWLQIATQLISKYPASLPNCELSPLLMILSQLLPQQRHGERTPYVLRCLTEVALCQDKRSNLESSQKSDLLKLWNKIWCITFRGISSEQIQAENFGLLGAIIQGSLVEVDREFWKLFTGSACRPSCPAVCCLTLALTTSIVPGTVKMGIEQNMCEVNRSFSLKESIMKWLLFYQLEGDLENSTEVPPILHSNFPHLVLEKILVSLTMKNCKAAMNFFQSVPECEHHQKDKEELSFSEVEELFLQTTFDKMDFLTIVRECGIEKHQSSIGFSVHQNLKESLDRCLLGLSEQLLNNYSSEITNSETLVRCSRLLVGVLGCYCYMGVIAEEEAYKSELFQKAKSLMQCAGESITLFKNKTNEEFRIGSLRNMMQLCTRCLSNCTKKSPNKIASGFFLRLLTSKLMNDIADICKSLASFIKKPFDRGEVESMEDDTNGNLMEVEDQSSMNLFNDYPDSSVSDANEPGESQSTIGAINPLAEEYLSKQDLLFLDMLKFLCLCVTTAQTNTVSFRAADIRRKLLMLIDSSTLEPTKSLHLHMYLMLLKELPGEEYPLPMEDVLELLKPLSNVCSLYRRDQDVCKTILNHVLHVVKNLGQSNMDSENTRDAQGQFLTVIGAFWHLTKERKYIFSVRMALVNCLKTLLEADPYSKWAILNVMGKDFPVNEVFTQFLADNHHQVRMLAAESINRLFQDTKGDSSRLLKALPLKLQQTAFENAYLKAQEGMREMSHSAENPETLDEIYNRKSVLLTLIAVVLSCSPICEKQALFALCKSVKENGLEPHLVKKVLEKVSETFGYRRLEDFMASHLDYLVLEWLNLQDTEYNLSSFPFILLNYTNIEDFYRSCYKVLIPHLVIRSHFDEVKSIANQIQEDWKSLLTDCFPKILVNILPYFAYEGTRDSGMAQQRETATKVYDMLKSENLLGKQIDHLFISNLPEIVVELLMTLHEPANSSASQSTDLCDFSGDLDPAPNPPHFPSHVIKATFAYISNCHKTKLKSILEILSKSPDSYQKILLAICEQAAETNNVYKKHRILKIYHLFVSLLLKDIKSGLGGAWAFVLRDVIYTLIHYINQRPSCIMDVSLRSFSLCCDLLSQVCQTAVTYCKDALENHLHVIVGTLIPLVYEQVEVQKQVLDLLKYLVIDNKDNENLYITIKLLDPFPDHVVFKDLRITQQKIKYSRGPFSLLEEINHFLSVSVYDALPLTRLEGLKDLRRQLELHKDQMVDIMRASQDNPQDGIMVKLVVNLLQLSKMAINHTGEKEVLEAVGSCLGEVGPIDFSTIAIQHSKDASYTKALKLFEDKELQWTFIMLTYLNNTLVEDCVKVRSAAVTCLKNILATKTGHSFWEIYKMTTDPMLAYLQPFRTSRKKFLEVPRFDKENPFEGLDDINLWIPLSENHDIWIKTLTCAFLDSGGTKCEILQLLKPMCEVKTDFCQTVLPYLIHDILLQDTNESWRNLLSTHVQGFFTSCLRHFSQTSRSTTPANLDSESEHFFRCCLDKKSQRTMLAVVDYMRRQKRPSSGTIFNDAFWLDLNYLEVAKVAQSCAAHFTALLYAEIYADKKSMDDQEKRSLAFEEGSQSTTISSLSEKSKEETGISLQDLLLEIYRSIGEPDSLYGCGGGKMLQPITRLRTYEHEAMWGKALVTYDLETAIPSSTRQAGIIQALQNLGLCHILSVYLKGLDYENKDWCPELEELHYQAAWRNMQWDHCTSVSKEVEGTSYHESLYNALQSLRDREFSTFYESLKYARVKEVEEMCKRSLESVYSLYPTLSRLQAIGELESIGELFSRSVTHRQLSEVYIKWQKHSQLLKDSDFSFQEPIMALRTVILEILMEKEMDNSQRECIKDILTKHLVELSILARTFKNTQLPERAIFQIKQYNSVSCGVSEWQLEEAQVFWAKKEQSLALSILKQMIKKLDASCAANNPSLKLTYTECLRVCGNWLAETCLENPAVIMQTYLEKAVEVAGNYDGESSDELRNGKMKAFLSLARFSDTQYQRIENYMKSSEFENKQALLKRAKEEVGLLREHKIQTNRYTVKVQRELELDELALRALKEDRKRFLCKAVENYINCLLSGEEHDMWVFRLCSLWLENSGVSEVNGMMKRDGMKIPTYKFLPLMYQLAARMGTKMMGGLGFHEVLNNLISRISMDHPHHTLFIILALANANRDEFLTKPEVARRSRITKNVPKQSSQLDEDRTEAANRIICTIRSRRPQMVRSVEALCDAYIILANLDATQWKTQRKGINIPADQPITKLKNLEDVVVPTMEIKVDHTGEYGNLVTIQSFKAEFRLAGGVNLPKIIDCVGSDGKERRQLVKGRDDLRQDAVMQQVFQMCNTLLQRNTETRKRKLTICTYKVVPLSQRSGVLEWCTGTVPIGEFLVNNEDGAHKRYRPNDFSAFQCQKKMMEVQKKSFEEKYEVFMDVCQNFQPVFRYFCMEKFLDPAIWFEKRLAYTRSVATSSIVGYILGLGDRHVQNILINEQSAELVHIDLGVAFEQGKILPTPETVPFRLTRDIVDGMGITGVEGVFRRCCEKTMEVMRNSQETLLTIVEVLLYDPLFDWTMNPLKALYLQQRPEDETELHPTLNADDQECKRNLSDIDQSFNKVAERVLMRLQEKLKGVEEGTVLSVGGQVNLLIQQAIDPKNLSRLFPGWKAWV
Sequence of Phosphatidylinositol 3-kinase catalytic subunit type 3 (Q8NEB9 whole entry): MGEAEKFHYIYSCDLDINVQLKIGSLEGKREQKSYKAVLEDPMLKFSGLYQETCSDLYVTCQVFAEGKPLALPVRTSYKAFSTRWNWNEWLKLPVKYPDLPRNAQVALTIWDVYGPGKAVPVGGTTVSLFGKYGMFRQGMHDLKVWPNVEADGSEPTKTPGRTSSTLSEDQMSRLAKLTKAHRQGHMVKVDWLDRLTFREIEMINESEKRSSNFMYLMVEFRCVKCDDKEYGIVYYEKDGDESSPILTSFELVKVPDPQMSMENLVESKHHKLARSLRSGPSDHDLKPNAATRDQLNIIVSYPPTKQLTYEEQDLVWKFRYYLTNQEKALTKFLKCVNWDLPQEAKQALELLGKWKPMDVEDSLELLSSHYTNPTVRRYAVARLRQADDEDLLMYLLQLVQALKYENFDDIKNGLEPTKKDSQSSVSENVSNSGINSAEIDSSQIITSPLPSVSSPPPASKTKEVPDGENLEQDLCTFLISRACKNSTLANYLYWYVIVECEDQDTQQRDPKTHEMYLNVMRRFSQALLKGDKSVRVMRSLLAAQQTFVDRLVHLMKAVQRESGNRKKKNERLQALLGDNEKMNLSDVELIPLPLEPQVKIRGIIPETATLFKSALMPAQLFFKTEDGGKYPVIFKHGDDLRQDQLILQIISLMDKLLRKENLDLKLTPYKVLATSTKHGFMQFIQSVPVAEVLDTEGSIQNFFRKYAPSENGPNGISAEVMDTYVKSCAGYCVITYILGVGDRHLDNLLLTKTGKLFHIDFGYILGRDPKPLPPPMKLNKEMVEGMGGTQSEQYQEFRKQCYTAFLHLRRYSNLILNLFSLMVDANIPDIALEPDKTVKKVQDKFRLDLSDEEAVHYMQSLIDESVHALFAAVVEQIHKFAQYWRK
Sequence of Phosphatidylinositol 4,5-bisphosphate 3-kinase catalytic subunit alpha isoform (P42336 whole entry, canonical isoform): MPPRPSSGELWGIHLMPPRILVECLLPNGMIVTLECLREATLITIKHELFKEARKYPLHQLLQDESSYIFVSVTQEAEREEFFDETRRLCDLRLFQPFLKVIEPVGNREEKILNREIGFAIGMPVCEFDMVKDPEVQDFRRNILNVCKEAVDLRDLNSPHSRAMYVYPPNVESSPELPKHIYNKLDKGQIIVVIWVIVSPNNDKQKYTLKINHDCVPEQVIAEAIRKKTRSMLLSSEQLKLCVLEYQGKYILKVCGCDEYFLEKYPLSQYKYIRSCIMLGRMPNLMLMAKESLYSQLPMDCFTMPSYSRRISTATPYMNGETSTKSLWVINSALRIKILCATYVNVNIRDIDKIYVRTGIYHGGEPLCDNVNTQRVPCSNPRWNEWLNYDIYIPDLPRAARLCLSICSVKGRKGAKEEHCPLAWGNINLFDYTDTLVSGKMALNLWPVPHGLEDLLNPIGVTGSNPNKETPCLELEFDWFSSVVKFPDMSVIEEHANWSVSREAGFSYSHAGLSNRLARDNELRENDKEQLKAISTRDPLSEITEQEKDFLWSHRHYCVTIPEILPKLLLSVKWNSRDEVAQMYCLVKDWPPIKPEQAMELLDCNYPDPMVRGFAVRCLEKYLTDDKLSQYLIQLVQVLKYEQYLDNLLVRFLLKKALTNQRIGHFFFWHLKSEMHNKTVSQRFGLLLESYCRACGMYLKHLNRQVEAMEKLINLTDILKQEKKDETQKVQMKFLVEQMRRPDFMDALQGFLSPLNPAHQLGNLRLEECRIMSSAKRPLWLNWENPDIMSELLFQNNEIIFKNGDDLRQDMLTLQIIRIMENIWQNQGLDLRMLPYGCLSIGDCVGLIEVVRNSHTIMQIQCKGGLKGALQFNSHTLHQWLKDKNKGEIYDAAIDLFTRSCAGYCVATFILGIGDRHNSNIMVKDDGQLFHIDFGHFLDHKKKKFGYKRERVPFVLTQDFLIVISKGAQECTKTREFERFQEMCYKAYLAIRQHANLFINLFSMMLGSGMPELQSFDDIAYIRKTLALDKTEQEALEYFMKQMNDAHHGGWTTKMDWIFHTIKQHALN

| Structure (SMILES) | Ki [1] [nM] | Ki [2] [nM] | IC50 (U2OS [3]) [nM] | other results |
| --- | --- | --- | --- | --- |
| O=c1cc(N2CCOCC2)cc(N2C[C@@H]3C[C@@H]3[C@H]2Cc2ccccc2)[nH]1 | 2 | 90 | 300 |  |
| COc1cc2ncnc(-n3cc(-c4ccccn4)nc3N)c2cc1OC |  |  |  | IC50 (MCF7): 370 nM |
| COCCOc1cc2c(-n3cc(-c4ccccn4)nc3N)ncnc2cc1OC |  |  |  | IC50 (MCF7): 1200 nM |
| O=c1cc(N2CCOCC2)cc(N2CC3CC3[C@H]2Cc2ccccc2)[nH]1 (some centres not stated) | 6 | 9 | 3400 |  |
| O=c1cc(N2CCOCC2)cc(N2CCCCC[C@H]2Cc2ccccc2)[nH]1 | 1 | 50 | 230 |  |
| C=C1C(=O)OCC1C(=O)N1Cc2cc3ccccc3nc2C1 (configuration not stated) |  |  |  | IC50 [4]: 600 nM; IC50 [5]: 7000 nM |
| CNC(=O)c1ccc(-c2cnc3cnc(-c4ccccc4)cn23)cc1 |  |  |  | IC50 (SW480): 6200 nM |
| CC(C)NC(=O)N(C)c1cnc2ccc(-c3ccc(OCCCN4CCCCC4)nc3)cc2n1 |  |  |  | half-life [6]: 12.8 h |
| C[C@@H]1CN(CC(=O)Nc2ccc3c(c2)Cc2cccc(-c4cc(=O)cc(N5CCOCC5)o4)c2S3)C[C@H](C)O1 |  |  |  | IC50 [7]: 6 nM |
| COc1ccc2c(c1)Cc1cccc(-c3cc(=O)cc(N4CCOCC4)o3)c1S2 |  |  |  | IC50 [8]: 5 nM; IC50 (U2OS [9]): 910 nM |
| C[C@H]1CCN(c2nc(N3CCOCC3)cc(=O)[nH]2)[C@@H]1Cc1ccccc1 | 0.4 | 6 | 90 |  |
| CN1CCN(CCC(=O)Nc2ccc3c(c2)Sc2cccc(-c4cc(=O)cc(N5CCOCC5)o4)c2S3)CC1 |  |  |  | IC50 [8]: 3 nM |
